# Where two headings read alike, the source gives them in different places. *1 amine or outer side, *2 acyl side, *3 side chain or, on linkers, in order; H or OH if unused. Where a SMILES comes first, the peptide text is derived from it. [ ]: non-standard residue; d: D form. dAla(ψthiazole) = C[C@@H](N[*:1])c1nc(C(=O)[*:2])cs1; Trp(4-Br) = N[C@@H](Cc1c[nH]c2cccc(Br)c12)C(=O)O; Trp(4-OMe) = COc1cccc2[nH]cc(C[C@H](N)C(=O)O)c12; X1 = O=C(/C(=C/c1ccccc1)N[*:1])[*:2]; X2 = CC(C)/C=C(\N[*:1])C(=O)[*:2]; ΔVal = CC(C)=C(N)C(=O)O; Dha = C=C(N)C(=O)O; Sar = CNCC(=O)O
# Experiments:
# [1] = test system: C. difficile ATCC 43255 (aka VPI 10463; ribotype 087); test: Mouse model of C. difficile-associated disease; assay type: in vivo, C57BL/6 mice
# P. aeruginosa PAO1 = details: for IC50 / % Growth inhibition at 100 μM: PAO1, 13 h; for activity against P. aeruginosa in comparison to the Dha containing compound 3: PAO1
# B. multivorans ATCC17616 = details: ATCC17616, 25 h
# [2] = amide bond, 24-membered ring, PyBOP/HOBt/DIPEA, 0.5 mM
IC50 (P. aeruginosa PAO1) [µM],IC50 (B. multivorans ATCC17616) [µM],Compound,% Growth inhibition at 100 μM (P. aeruginosa PAO1) [%],activity against P. aeruginosa in comparison to the Dha containing compound 3 (P. aeruginosa PAO1),also measured
,,"CCc1c(Cl)c(O)c(Cl)c(O)c1C(=O)O[C@H]1[C@H](O)[C@H](OC)[C@H](OC/C2=C\C=C\C[C@H](O)/C(C)=C/[C@H](CC)[C@@H](O[C@@H]3OC(C)(C)[C@@H](OC(=O)C(C)C)[C@H](O)[C@@H]3O)/C(C)=C/C(C)=C/C[C@@H]([C@@H](C)O)OC2=O)O[C@@H]1C [Fidaxomicin, reference compound]",,,survival to the end of the study at day-21 post-infection ([1]; 2.5 mg/kg): survived to the end of the study; Mean survival ([1]; 2.5 mg/kg oral BD for 5 days): 504.00 h
19.8 ± 1.6,3.1 ± 1.7,"C=C1NC(=O)[C@@H](C)NC(=O)CNC(=O)[C@H](Cc2c[nH]c3cccc(OC)c23)NC(=O)[C@H](Cc2c[nH]c3ccccc23)NC(=O)c2csc(n2)[C@@H](C)NC(=O)CN(C)C1=O [Argyrin A, Cyclo[D-Ala-Thz-Trp-Trp(4-MeO)-Gly-D-Ala-Dha-Sar], reference compound] (cyclo(W[Trp(4-OMe)]G[dA][Dha][Sar][dAla(ψthiazole)]))",82.6 ± 7.4,,
,,"c1cc(-c2nc3ccc(-c4ccc5nc(-c6ccncc6)[nH]c5c4)cc3[nH]2)ccn1 [SMT19969, reference compound]",,,Mean survival ([1]; 20 mg/kg oral BD for 5 days): 88.00 h
12.2 ± 0.2,1.54 ± 0.2,"CC(C)=C1NC(=O)[C@@H](C)NC(=O)CNC(=O)[C@H](Cc2c[nH]c3cccc(Br)c23)NC(=O)[C@H](Cc2c[nH]c3ccccc23)NC(=O)c2csc(n2)[C@@H](C)NC(=O)CN(C)C1=O [Compound 13, Cyclo[D-Ala-Thz-Trp-Trp(4-Br)-Gly-D-Ala-Dhv-Sar]] (cyclo(G[dA][ΔVal][Sar][dAla(ψthiazole)]W[Trp(4-Br)]))",85.1 ± 3.4,did not result in a notable change in activity,
> 100,1.1 ± 0.2,"C[C@H]1NC(=O)CNC(=O)[C@H](Cc2c[nH]c3cccc(Br)c23)NC(=O)[C@H](Cc2c[nH]c3ccccc23)NC(=O)c2csc(n2)[C@@H](C)NC(=O)CN(C)C(=O)/C(=C/c2ccccc2)NC1=O [Compound 12, Cyclo[D-Ala-Thz-Trp-Trp(4-Br)-Gly-D-Ala-Dhp-Sar]] (cyclo(G[dA][X1][Sar][dAla(ψthiazole)]W[Trp(4-Br)]))",20.1 ± 5.4,dramatic loss in activity,
> 100,0.98 ± 0.1,"CC(C)/C=C1\NC(=O)[C@@H](C)NC(=O)CNC(=O)[C@H](Cc2c[nH]c3cccc(Br)c23)NC(=O)[C@H](Cc2c[nH]c3ccccc23)NC(=O)c2csc(n2)[C@@H](C)NC(=O)CN(C)C1=O [Compound 14, Cyclo[D-Ala-Thz-Trp-Trp(4-Br)-Gly-D-Ala-Dhl-Sar]] (cyclo(G[dA][X2][Sar][dAla(ψthiazole)]W[Trp(4-Br)]))",40.1 ± 6.8,dramatic loss in activity,
,,CC(C)=C1NC(=O)[C@@H](C)NC(=O)CNC(=O)[C@H](Cc2c[nH]c3cccc(Br)c23)NC(=O)[C@H](Cc2c[nH]c3ccccc23)NC(=O)c2csc(n2)[C@@H](C)NC(=O)CN(C)C1=O [Cyclo[D-Ala-Thz-Trp-Trp(4-Br)-Gly-D-Ala-Dhv-Sar]],,,"ring closure, yield after HPLC ([2]; from H-dAla-Thz-Trp-Trp(4-Br)-Gly-dAla-Dhv-Sar-OH?): 42%"
,,C[C@H]1NC(=O)CNC(=O)[C@H](Cc2c[nH]c3cccc(Br)c23)NC(=O)[C@H](Cc2c[nH]c3ccccc23)NC(=O)c2csc(n2)[C@@H](C)NC(=O)CN(C)C(=O)/C(=C/c2ccccc2)NC1=O [Cyclo[D-Ala-Thz-Trp-Trp(4-Br)-Gly-D-Ala-Dhp-Sar]],,,"ring closure, yield after HPLC ([2]; from H-dAla-Thz-Trp-Trp(4-Br)-Gly-dAla-Dhp-Sar-OH?): 35%"

# Reference: patent US11192888B2, “Antibacterial compounds” (priority 2017, dated 2021)
